Data taken from patent US20150342954A1, “2-BENZYL, 3-(PYRIMIDIN-2-YL) SUBSTITUTED PYRAZOLES USEFUL AS SGC STIMULATORS” (IRONWOOD PHARMACEUTICALS, INC., priority 2011, published 2015).
Read-outs that look alike come from different tables or passages of the source.

How the values were obtained:
[1] = target: T1, Human soluble guanylate cyclase enzyme (hsGC) (Homo sapiens, UniProt Q02108+Q02153); test: Purified human sGC enzyme synergy assay in the presence of 1 μM sodium nitroprusside (SNP); type: biochemical; conditions: compound at 30 μM, presence of 1 μM SNP; Table 5B
T1 construct: purchased Enzo Inc. ALX-201-177
T1 sequence (Q02153 1-619): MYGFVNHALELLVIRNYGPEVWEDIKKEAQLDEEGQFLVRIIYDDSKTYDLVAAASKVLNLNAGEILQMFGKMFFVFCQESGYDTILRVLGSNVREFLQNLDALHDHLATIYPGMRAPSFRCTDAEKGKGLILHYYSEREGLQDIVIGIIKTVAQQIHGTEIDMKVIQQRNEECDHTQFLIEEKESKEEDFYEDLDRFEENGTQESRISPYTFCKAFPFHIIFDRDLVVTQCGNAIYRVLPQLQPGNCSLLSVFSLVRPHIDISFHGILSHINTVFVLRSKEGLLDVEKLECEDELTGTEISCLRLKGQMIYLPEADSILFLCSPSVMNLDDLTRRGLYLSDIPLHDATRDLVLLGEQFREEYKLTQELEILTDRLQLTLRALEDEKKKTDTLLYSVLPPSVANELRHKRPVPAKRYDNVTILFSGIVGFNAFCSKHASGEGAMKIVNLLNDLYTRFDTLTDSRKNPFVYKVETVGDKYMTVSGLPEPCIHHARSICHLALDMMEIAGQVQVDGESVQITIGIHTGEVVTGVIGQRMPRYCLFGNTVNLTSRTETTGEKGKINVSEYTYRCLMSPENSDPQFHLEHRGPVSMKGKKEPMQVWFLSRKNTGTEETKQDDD
T1 sequence (Q02108 1-690): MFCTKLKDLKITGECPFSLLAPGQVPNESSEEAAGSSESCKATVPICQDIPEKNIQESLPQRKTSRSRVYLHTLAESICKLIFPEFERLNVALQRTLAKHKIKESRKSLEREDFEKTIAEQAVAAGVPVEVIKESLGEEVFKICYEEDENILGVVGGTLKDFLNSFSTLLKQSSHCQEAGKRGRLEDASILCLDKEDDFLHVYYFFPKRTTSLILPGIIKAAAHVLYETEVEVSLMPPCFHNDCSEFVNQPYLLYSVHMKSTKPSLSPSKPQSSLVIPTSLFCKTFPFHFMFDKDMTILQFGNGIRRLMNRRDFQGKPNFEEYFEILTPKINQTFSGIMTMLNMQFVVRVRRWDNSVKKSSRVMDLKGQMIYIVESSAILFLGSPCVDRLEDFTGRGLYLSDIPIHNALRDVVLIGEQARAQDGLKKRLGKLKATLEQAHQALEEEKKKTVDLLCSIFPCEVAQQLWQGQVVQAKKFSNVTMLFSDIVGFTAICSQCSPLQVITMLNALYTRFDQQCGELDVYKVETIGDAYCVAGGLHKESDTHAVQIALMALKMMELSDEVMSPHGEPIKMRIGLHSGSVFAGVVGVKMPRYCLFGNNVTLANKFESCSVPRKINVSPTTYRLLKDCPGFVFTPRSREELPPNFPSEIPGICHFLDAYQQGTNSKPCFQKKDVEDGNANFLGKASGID
In short: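 Purified hsGC (5 ng) incubated 30 min at 37 °C with compound (10 or 30 μM final) in Tris pH 8.0, 300 μM GTP, 1 mM IBMX, 2 mM MgCl2, with or without 1 μM SNP; stopped with cold methanol. cGMP quantified against standard curve; specific activity expressed as fold-change over DMSO control.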

[2] = target: T1, Human soluble guanylate cyclase enzyme (hsGC); test: Purified human sGC enzyme activity assay (without SNP); type: biochemical; conditions: compound at 30 μM, absence of SNP; fold over DMSO control; Table 5B
In short: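 Purified human sGC (5 ng) in 0.1 M Tris pH 8.0, 2 mM DTT, 2 mM MgCl2, 300 μM GTP, 1 mM IBMX, with compound at 10 or 30 μM final, 30 min at 37° C.; methanol-stopped. cGMP quantified against a standard curve; specific activity expressed as fold-change over DMSO control.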

[3] = target: T2, soluble guanylate cyclase (sGC) (Homo sapiens, UniProt Q02108+Q02153); test: sGC-HEK-cGMP assay (run with SNP incubation); type: cell-based; conditions: for Emax: Table 3B, 10 μM SNP, 100% = 30 μM BAY 41-2272 with 10 μM SNP, read-out: HEK assay Emax-unconstrained (Percent); for HEK MEC-10: concentration that would elicit 10% of the Emax in the presence of 10 μM SNP; for HEK MEC-10 / EC50: Table 3E; for EC50: in the presence of 10 μM SNP
T2 construct: endogenously expressing soluble guanylate cyclase (sGC); endogenous in cells; host or cells: HEK293
T2 sequence (Q02153 1-619): T1 sequence (Q02153 1-619)
T2 sequence (Q02108 1-690): T1 sequence (Q02108 1-690)
In short: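 HEK293 cells with endogenous sGC were pre-treated 15 min at 37 °C with 0.5 mM IBMX, then exposed to test compound plus sodium nitroprusside for 10 min at 37 °C. Cells were lysed in 0.1 M HCl (4 °C, 30 min), and cGMP was quantified by LC/MS against a standard curve. EC50 values came from concentration-response curves.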

[4] = top of concentration-response curve not fitted to 100%
[5] = top of concentration-response curve not fitted to 100%, read-out: HEK assay EC50-unconstrained

SMILES | Enzyme Activity (increase at 30 μM with SNP) [1] | Enzyme Activity (increase at 30 μM without SNP) [2] | Emax [3, 4] | HEK MEC-10 [3] | EC50 ([3]; read-out: HEK assay EC50) | EC50 [3, 5]
Nc1ccnc(-c2cc(-c3ccon3)n(Cc3cc(F)ccc3F)n2)n1 [Compound 73] | D (10 or <20 fold increase) | D (10 or <20 fold increase) | 60 to 80% | C (0.1 to <1 μM) | 60 to 100 µM | 0.5 to 1 µM
N#Cc1cc(-c2ncc(F)c(=O)[nH]2)nn1Cc1ccccc1F [Compound 74] | C (5 to <10 fold increase) | B (2 to <5 fold increase) | 40 to 60% | C (0.1 to <1 μM) | 40 to 60 µM | 1 to 5 µM
O=c1[nH]c(-c2cc(-c3ncon3)n(Cc3cc(F)ccc3F)n2)ncc1F [Compound 75] | C (5 to <10 fold increase) | B (2 to <5 fold increase) | 40 to 60% | C (0.1 to <1 μM) | 40 to 60 µM | 1 to 5 µM
Oc1nc(-c2cc(-c3ccon3)n(Cc3cccc(F)c3F)n2)ncc1Cl [Compound 76] | E (20 to 30 fold increase) | D (10 or <20 fold increase) | 80 to 100% | B (0.01 to <0.1 μM) | 60 to 100 µM | 0.01 to 0.5 µM
O=c1[nH]c(-c2cc(-c3ccon3)n(Cc3cccc(Cl)c3F)n2)ncc1F [Compound 77] | E (20 to 30 fold increase) | C (5 to <10 fold increase) | 60 to 80% | C (0.1 to <1 μM) | 60 to 100 µM | 0.01 to 0.5 µM
Nc1ccnc(-c2cc(-c3ccon3)n(Cc3cccc(Cl)c3F)n2)n1 [Compound 78] | E (20 to 30 fold increase) | C (5 to <10 fold increase) | 80 to 100% | B (0.01 to <0.1 μM) | 60 to 100 µM | 0.5 to 1 µM
O=c1[nH]c(-c2cc(-c3ccon3)n(Cc3ccccc3F)n2)nc(CF)c1F [Compound 79] | D (10 or <20 fold increase) | B (2 to <5 fold increase) | 40 to 60% | D (1 to <10 μM) | 40 to 60 µM | 5 to 10 µM
CC(=O)Nc1cnc(-c2cc(-c3ccon3)n(Cc3cccc(F)c3F)n2)nc1N [Compound 80] | E (20 to 30 fold increase) | D (10 or <20 fold increase) | 40 to 60% | C (0.1 to <1 μM) | 40 to 60 µM | 0.01 to 0.5 µM
O=c1ccnc(-c2cc(-c3ccon3)n(Cc3cccc(Cl)c3F)n2)[nH]1 [Compound 81] | D (10 or <20 fold increase) | C (5 to <10 fold increase) | 40 to 60% | C (0.1 to <1 μM) | 40 to 60 µM | 1 to 5 µM
Oc1ccnc(-c2cc(-c3ccon3)n(Cc3cccc(F)c3F)n2)n1 [Compound 84] | D (10 or <20 fold increase) | C (5 to <10 fold increase) | 60 to 80% | B (0.01 to <0.1 μM) | 60 to 100 µM | 1 to 5 µM
O=c1[nH]c(-c2cc(-c3ccon3)n(Cc3ccccc3F)n2)nc(F)c1C(F)(F)F [Compound 85, 6-fluoro-2-(1-(2-fluorobenzyl)-5-(isoxazol-3-yl)-1H-pyrazol-3-yl)-5-(trifluoromethyl)pyrimidin-4(3H)-one] | E (20 to 30 fold increase) | C (5 to <10 fold increase) | 40 to 60% |  |  | 0.01 to 0.5 µM
Cc1cccc(Cn2nc(-c3ncc(F)c(O)n3)cc2-c2ccon2)c1F [Compound 86] | D (10 or <20 fold increase) | C (5 to <10 fold increase) | 60 to 80% |  |  | 1 to 5 µM
